# Data from paper PMC11904707, “Cyclization of Two Antimicrobial Peptides Improves Their Activity” (ACS Omega, 2025).
# Read-outs that look alike come from different tables or passages of the source. Peptide text beside a SMILES is read from it.
# Assays:
# [1] = test system: G(−) bacteria (five species); assay: MIC growth inhibition assay, average over G(−) species; format: cell-based; details: average of the average MICs of five G(−) species, ± spread
# Method: (§1) Bacterial clinical isolates used for initial screening were anonymously provided by the clinical microbiology laboratory of the University of Pittsburgh Medical Center (UPMC). Bacteria were stored at −80 °C and typically retrieved by obtaining single colonies on agar plates prior to subsequent liquid broth culture. Suspensions of test bacteria were prepared from the log phase of growth by diluting overnight cultures at 1:100 with fresh cation-adjusted Mueller–Hinton Broth (MHB2) and incubating for an additional 3–4 h. Bacteria were spun at 3000 g for 10 min. The pellet was resuspended in Test Condition Media to determine bacterial turbidity using a Den-1B densitometer (Grant Instruments, Beaver Falls, PA) at 0.5 McFarland units corresponding to 10^8 CFU/mL.
# (§2) To examine antibacterial activity, we used minor modifications of a standard growth inhibition assay endorsed by the Clinical and Laboratory Standards Institute (CLSI), as previously described.[13] Bacteria were incubated with each of the indicated peptides in MHB2. The bacterial cells were kept in an incubator for 18 h at 37 °C, which is linked to a robotic system that feeds a plate reader every hour with one of 8 × 96-well plates. The 96-well plates are standard flat-bottom microliter plates purchased from Thermo Fisher (Waltham, MA). This setup allows the collection of growth kinetic data at A 570 (absorbance at 570 nm) to examine growth inhibition in real-time (BioTek Instruments, Winooski, VT). […] The assays are typically repeated a second time. If the MIC differs from the first assay, a third experimental trial is performed to confirm the MIC.
# [2] = test system: Enterococci (EF500, EF678, EF679, EF787); assay: organism not typed; format: cell-based; details: read-out: MIC G(+) Entcoc
# Method: as §1, §2
# [3] = test system: G(+) bacteria (two species); assay: MIC growth inhibition assay, average over G(+) species; format: cell-based; details: average of the average MICs of two G(+) species, ± spread
# Method: as §1, §2
# [4] = test system: Pseudomonas aerginosa (PA231, PA235, PA239, PA249); assay: MIC growth inhibition assay, Pseudomonas aeruginosa clinical isolates; format: cell-based; details: average of four strains, MHB2, 18 h, 37 °C, A570 growth curves
# Method: as §1, §2
# [5] = test system: Enterobacter (EA62, EC544, EC547, EA1042); assay: MIC growth inhibition assay, Enterobacter clinical isolates; format: cell-based; details: average of four strains, MHB2, 18 h, 37 °C, A570 growth curves, read-out: MIC G(−) Entbac
# Method: as §1, §2
# [6] = test system: Klebsiella pneumoniae (KP106, KP506, KP542, KP550); assay: microbe, parasite or virus in culture; format: cell-based
# Method: as §1, §2
# [7] = test system: Acinetobacter baumannii (AB78, AB83, AB273, AB275); assay: microbe, parasite or virus in culture; format: cell-based
# Method: as §1, §2
# [8] = test system: Staphylococcus aureus (SA703, SA722, SA729); assay: microbe, parasite or virus in culture; format: cell-based
# Method: as §1, §2
# [9] = test system: Escherichia coli (EC541, EC543, EC546, EC549); assay: microbe, parasite or virus in culture; format: cell-based
# Method: as §1, §2
# [10] = test system: Staphylococcus hemolyticus 730; assay: microbe, parasite or virus in culture; format: cell-based; details: for MIC after 1-Hr AB incubation / MIC after 1-Hr NE digestion / MIC after 4-Hr AB incubation / MIC after 4-Hr NE digestion: pH 8; for MIC: then MIC vs Staphylococcus hemolyticus 730
# Method: One motivation in designing linear or cyclic AMPs is to prevent proteolytic degradation that can occur with helical peptides. […] Linezolid, a conventional antibiotic was included for comparison.
# as §2
# The neutrophil elastase was dissolved in 200 mmol/L Tris buffer, pH 8.8, and used at a molar ratio of 1:50 with the peptide in 200 mM ammonium bicarbonate pH 8.0 for 1 or 4 h. The control experiment incubated the peptides alone in 200 mmol/L ammonium bicarbonate for 1 or 4 h. Upon completion of the incubations, the peptides were serially diluted to test MIC. 50% (v/v) MHB2 was added to the plates. MIC was determined as described above.
# [11] = test system: human red blood cells (RBCs); details: cited from earlier work
# From the text: Table 2 Antibacterial Activity and Toxicity of CE-03, LE-53, CE-05 and LE-55 Peptides ^a | column: % toxicity / RBC || The secondary structure of AMPs as they encounter membranes may correlate with their toxicity; it has long been thought that helical peptides are more toxic to eukaryotic cells than nonhelical peptides. Our group has found a positive correlation between helicity and toxicity for WLBU2,[18] the E2-peptides,[28] and SPLUNC1-derived antimicrobial peptides.[34] We have also seen the converse, that nonhelical peptides are nontoxic,[18],[26] supporting the positive correlation between helicity and toxicity. Several literature studies have also found a correlation between α-helicity and toxicity to e ...
# [12] = average of four strains, MHB2, 18 h, 37 °C, A570 growth curves
# [13] = KP106, KP506, KP542, KP550, 18 h
# [14] = EC541, EC543, EC546, EC549, 18 h
compound,measurement,setting,value
NC[C@H]1O[C@H](O[C@H]2[C@H](O)[C@@H](O[C@H]3O[C@H](CO)[C@@H](O)[C@H](N)[C@H]3O)[C@H](N)C[C@@H]2N)[C@H](N)C[C@@H]1O [tobramycin],MIC,[1],23.7 ± 3.4 µM
same,MIC,[2]; [12],25 µM
same,MIC,[3],19 ± 1 µM
same,MIC,[4]; Pseudomonas,32 µM
same,MIC,[5]; Enterobacter,24.5 µM
same,MIC,"[6]; Klebsiella pneumoniae, average of four strains, MHB2, 18 h, 37 °C, A570 growth curves",2.1 µM
same,MIC,"[7]; Acinetobacter baumannii, average of four strains, MHB2, 18 h, 37 °C, A570 growth curves",32 µM
same,MIC,"[8]; Staphylococcus aureus, average of strains SA703, SA722, SA729, MHB2, 18 h, 37 °C, A570 growth curves",13.1 µM
same,MIC,"[9]; Escherichia coli, average of four strains, MHB2, 18 h, 37 °C, A570 growth curves",28 µM
CC(C)[C@H](NC(=O)[C@@H](NC(=O)[C@@H](NC(=O)[C@@H](NC(=O)[C@H](Cc1c[nH]c2ccccc12)NC(=O)[C@H](Cc1c[nH]c2ccccc12)NC(=O)[C@H](Cc1c[nH]c2ccccc12)NC(=O)[C@H](Cc1c[nH]c2ccccc12)NC(=O)[C@H](CCCNC(=N)N)NC(=O)[C@H](CCCNC(=N)N)NC(=O)[C@H](CCCNC(=N)N)NC(=O)[C@H](CCCNC(=N)N)NC(=O)[C@H](CCCNC(=N)N)NC(=O)[C@H](CCCNC(=N)N)NC(=O)[C@H](CCCNC(=N)N)NC(=O)[C@@H](N)CCCNC(=N)N)C(C)C)C(C)C)C(C)C)C(=O)O [LE-55] (H-RRRRRRRRWWWWVVVV-OH),MIC after 1-Hr AB incubation,[10],16.0 ± 0 µM
same,MIC after 1-Hr NE digestion,[10],3.0 ± 1.4 µM
same,MIC after 4-Hr AB incubation,[10],6.0 ± 2.8 µM
same,MIC after 4-Hr NE digestion,[10],3.0 ± 1.4 µM
same,toxicity (in words),[11],nontoxic
CC(C)[C@@H]1NC(=O)[C@H](Cc2c[nH]c3ccccc23)NC(=O)[C@H](Cc2c[nH]c3ccccc23)NC(=O)[C@H](Cc2c[nH]c3ccccc23)NC(=O)[C@H](Cc2c[nH]c3ccccc23)NC(=O)[C@H](CCCNC(=N)N)NC(=O)[C@H](CCCNC(=N)N)NC(=O)[C@H](CCCNC(=N)N)NC(=O)[C@H](CCCNC(=N)N)NC(=O)[C@H](CCCNC(=N)N)NC(=O)[C@H](CCCNC(=N)N)NC(=O)[C@H](C(C)C)NC1=O [CE-03] (cyclo(RRRRRRWWWWVV)),MIC G(−) average,[1],4.6 ± 1.3 µM
same,MIC,[2]; 18 h,0.9 µM
same,MIC G(+) average,[3],1.6 ± 0.7 µM
same,MIC after 1-Hr AB incubation,[10],1.0 ± 0.0 µM
same,MIC after 1-Hr NE digestion,[10],1.5 ± 0.7 µM
same,MIC after 4-Hr AB incubation,[10],1.0 ± 0 µM
same,MIC after 4-Hr NE digestion,[10],1.0 ± 0 µM
same,MIC,[4],7.1 µM
same,MIC,[5],3.7 µM
same,MIC,[6]; [13],8.2 µM
same,MIC,"[7]; AB78, AB83, AB273, AB275, 18 h",2.2 µM
same,MIC,"[8]; SA703, SA722, SA729, 18 h",2.3 µM
same,MIC,[9]; [14],1.5 µM
CC(=O)NC[C@H]1CN(c2ccc(N3CCOCC3)c(F)c2)C(=O)O1 [linezolid],MIC,"[10]; control: peptide alone in 200 mmol/L ammonium bicarbonate pH 8.0, 1 h, read-out: MIC after 1-Hr AB incubation",> 16 µM
same,MIC,"[10]; control: peptide alone in 200 mmol/L ammonium bicarbonate pH 8.0, 4 h, read-out: MIC after 4-Hr AB incubation",> 16 µM
same,MIC,"[10]; human neutrophil elastase, molar ratio 1:50 with peptide, 200 mM ammonium bicarbonate pH 8.0, 1 h, read-out: MIC after 1-Hr NE digestion",> 16 µM
same,MIC,"[10]; human neutrophil elastase, molar ratio 1:50 with peptide, 200 mM ammonium bicarbonate pH 8.0, 4 h, read-out: MIC after 4-Hr NE digestion",> 16 µM
colistin,MIC G(−) average,[1],5.2 ± 4.3 µM
same,MIC,[2]; [12],32.0 µM
same,MIC G(+) average,[3],48.0 ± 23.0 µM
same,MIC,[4],8.4 µM
same,MIC,[5],12.1 µM
same,MIC,[6]; [12],0.7 µM
same,MIC,[7]; [12],0.5 µM
same,MIC,"[8]; average of strains SA703, SA722, SA729, MHB2, 18 h, 37 °C, A570 growth curves",64.0 µM
same,MIC,[9]; [12],4.3 µM
CC(C)[C@H](NC(=O)[C@@H](NC(=O)[C@H](Cc1c[nH]c2ccccc12)NC(=O)[C@H](Cc1c[nH]c2ccccc12)NC(=O)[C@H](Cc1c[nH]c2ccccc12)NC(=O)[C@H](Cc1c[nH]c2ccccc12)NC(=O)[C@H](CCCNC(=N)N)NC(=O)[C@H](CCCNC(=N)N)NC(=O)[C@H](CCCNC(=N)N)NC(=O)[C@H](CCCNC(=N)N)NC(=O)[C@H](CCCNC(=N)N)NC(=O)[C@@H](N)CCCNC(=N)N)C(C)C)C(=O)O [LE-53] (H-RRRRRRWWWWVV-OH),MIC after 1-Hr AB incubation,[10],2.0 ± 0 µM
same,MIC after 1-Hr NE digestion,[10],2.0 ± 0 µM
same,MIC after 4-Hr AB incubation,[10],3.0 ± 1.4 µM
same,MIC after 4-Hr NE digestion,[10],1.5 ± 0.7 µM
same,toxicity (in words),[11],nontoxic
CC(C)[C@@H]1NC(=O)[C@H](Cc2c[nH]c3ccccc23)NC(=O)[C@H](Cc2c[nH]c3ccccc23)NC(=O)[C@H](Cc2c[nH]c3ccccc23)NC(=O)[C@H](Cc2c[nH]c3ccccc23)NC(=O)[C@H](CCCNC(=N)N)NC(=O)[C@H](CCCNC(=N)N)NC(=O)[C@H](CCCNC(=N)N)NC(=O)[C@H](CCCNC(=N)N)NC(=O)[C@H](CCCNC(=N)N)NC(=O)[C@H](CCCNC(=N)N)NC(=O)[C@H](CCCNC(=N)N)NC(=O)[C@H](CCCNC(=N)N)NC(=O)[C@H](C(C)C)NC(=O)[C@H](C(C)C)NC(=O)[C@H](C(C)C)NC1=O [CE-05] (cyclo(RRRRRRRRWWWWVVVV)),MIC G(−) average,[1],3.9 ± 1.1 µM
same,MIC after 1-Hr AB incubation,[10],6.0 ± 2.8 µM
same,MIC after 1-Hr NE digestion,[10],3.0 ± 1.4 µM
same,MIC after 4-Hr AB incubation,[10],4.0 ± 0 µM
same,MIC after 4-Hr NE digestion,[10],3.0 ± 1.4 µM
same,MIC,[4],6.1 µM
same,MIC,[5],3.2 µM
same,MIC,[6]; [13],6.7 µM
same,MIC,"[7]; AB78, AB83, AB273, AB275, 18 h",1.1 µM
same,MIC,"[8]; SA703, SA722, SA729, 18 h",1.0 µM
same,MIC,[9]; [14],2.5 µM
